The record followed here is ChEMBL document CHEMBL3576778, “Structure-Activity Relationship Studies of a Series of Semisynthetic Lipopeptides Leading to the Discovery of Surotomycin, a Novel Cyclic Lipopeptide Being Developed for the Treatment of Clostridium difficile-Associated Diarrhea” (J Med Chem, 2015).

What all share (format): functional
For experiment [1], the system named is Clostridioides difficile. The experiment can be described thus: Antimicrobial activity against daptomycin-resistant Clostridium difficile ATCC 43596 infected in Syrian golden hamster model of Clostridium difficile-associated diarrhea assessed as protection against microbial infection by measuring survival at day 25 to 26 at 0.5 mg/kg treated once daily for 5 consecutive days starting 4 hrs after spore inoculation.

Experiment [2] has as its system Enterococcus faecium. The experiment can be described thus: Antimicrobial activity against daptomycin-resistant Enterococcus faecium ATCC 6569 incubated anaerobically at 37 degC for 48 hrs by agar dilution method. The following applies: ATCC 6569, 48 h.
For experiment [3], the system named is Clostridioides difficile. In words: Antimicrobial activity against daptomycin-resistant Clostridium difficile NAP1 incubated anaerobically at 37 degC for 48 hrs by agar dilution method. The following applies: NAP1, 48 h.
Experiment [4] has as its system Staphylococcus aureus. The experiment can be described thus: Antimicrobial activity against daptomycin-susceptible Staphylococcus aureus ATCC 29213 incubated anaerobically at 37 degC for 48 hrs by agar dilution method. The following applies: ATCC 29213, 48 h.
Experiment [5] relates to Enterococcus faecalis. In words: Antimicrobial activity against daptomycin-resistant Enterococcus faecalis ATCC 49452 incubated anaerobically at 37 degC for 48 hrs by agar dilution method. The settings on record: ATCC 49452, 48 h.

≈ marks a conversion by molar mass, not a printed value.

For the molecule `CCCCCC12CCC(C(=O)N[C@@H](Cc3c[nH]c4ccccc34)C(=O)N[C@@H](CC(N)=O)C(=O)N[C@@H](CC(=O)O)C(=O)N[C@@H]3C(=O)NCC(=O)N[C@@H](CCCN)C(=O)N[C@H](CC(=O)O)C(=O)N[C@H](C)C(=O)N[C@@H](CC(=O)O)C(=O)NCC(=O)N[C@H](CO)C(=O)N[C@@H]([C@@H](C)CC(=O)O)C(=O)N[C@@H](CC(=O)c4ccccc4N)C(=O)O[C@@H]3C)(CC1)CC2`, in experiment [1], the survival at 0.5 mg/kg was determined as 60%. Moreover, the MIC came out at 16 µg/mL (≈ 9.56 µM) in experiment [2], 1 µg/mL (≈ 0.598 µM) in experiment [3], 0.25 µg/mL (≈ 0.149 µM) in experiment [4] and 32 µg/mL (≈ 19.1 µM) in experiment [5].
Taken in the same sequence, the figures for `CCCCCCCc1csc(C(=O)N[C@@H](Cc2c[nH]c3ccccc23)C(=O)N[C@@H](CC(N)=O)C(=O)N[C@@H](CC(=O)O)C(=O)N[C@@H]2C(=O)NCC(=O)N[C@@H](CCCN)C(=O)N[C@H](CC(=O)O)C(=O)N[C@H](C)C(=O)N[C@@H](CC(=O)O)C(=O)NCC(=O)N[C@H](CO)C(=O)N[C@@H]([C@@H](C)CC(=O)O)C(=O)N[C@@H](CC(=O)c3ccccc3N)C(=O)O[C@@H]2C)c1` were 60%, 16 µg/mL (≈ 9.55 µM), 2 µg/mL (≈ 1.19 µM), 0.125 µg/mL (≈ 0.0746 µM) and 32 µg/mL (≈ 19.1 µM).
Taken in the same sequence, the figures for `CCCCCCCc1ccc(C(=O)N[C@@H](Cc2c[nH]c3ccccc23)C(=O)N[C@@H](CC(N)=O)C(=O)N[C@@H](CC(=O)O)C(=O)N[C@@H]2C(=O)NCC(=O)N[C@@H](CCCN)C(=O)N[C@H](CC(=O)O)C(=O)N[C@H](C)C(=O)N[C@@H](CC(=O)O)C(=O)NCC(=O)N[C@H](CO)C(=O)N[C@@H]([C@@H](C)CC(=O)O)C(=O)N[C@@H](CC(=O)c3ccccc3N)C(=O)O[C@@H]2C)cc1` were 80%, 4 µg/mL (≈ 2.4 µM), 0.5 µg/mL (≈ 0.3 µM), 0.25 µg/mL (≈ 0.15 µM) and 8 µg/mL (≈ 4.79 µM).
As to `CCCCC[C@H]1CC[C@H](C(=O)N[C@@H](Cc2c[nH]c3ccccc23)C(=O)N[C@@H](CC(N)=O)C(=O)N[C@@H](CC(=O)O)C(=O)N[C@@H]2C(=O)NCC(=O)N[C@@H](CCCN)C(=O)N[C@H](CC(=O)O)C(=O)N[C@H](C)C(=O)N[C@@H](CC(=O)O)C(=O)NCC(=O)N[C@H](CO)C(=O)N[C@@H]([C@@H](C)CC(=O)O)C(=O)N[C@@H](CC(=O)c3ccccc3N)C(=O)O[C@@H]2C)CC1`, the survival at 0.5 mg/kg in experiment [1] worked out at 60%. Also, the MIC in experiment [2] was 16 µg/mL (≈ 9.72 µM); in experiment [3], 0.5 µg/mL (≈ 0.304 µM); in experiment [4], 0.5 µg/mL (≈ 0.304 µM); in experiment [5], more than 32 µg/mL.
`CCCOc1ccc(-c2ccc(C(=O)N[C@@H](Cc3c[nH]c4ccccc34)C(=O)N[C@@H](CC(N)=O)C(=O)N[C@@H](CC(=O)O)C(=O)N[C@@H]3C(=O)NCC(=O)N[C@@H](CCCN)C(=O)N[C@H](CC(=O)O)C(=O)N[C@H](C)C(=O)N[C@@H](CC(=O)O)C(=O)NCC(=O)N[C@H](CO)C(=O)N[C@@H]([C@@H](C)CC(=O)O)C(=O)N[C@@H](CC(=O)c4ccccc4N)C(=O)O[C@@H]3C)cc2)cc1`: the MIC was 32 µg/mL (≈ 18.8 µM) in experiment [2], 4 µg/mL (≈ 2.35 µM) in experiment [3], 0.5 µg/mL (≈ 0.293 µM) in experiment [4] and more than 32 µg/mL in experiment [5].
On to `CC(C)CCCCCCCCCC(=O)N[C@@H](Cc1c[nH]c2ccccc12)C(=O)N[C@@H](CC(N)=O)C(=O)N[C@@H](CC(=O)O)C(=O)N[C@@H]1C(=O)NCC(=O)N[C@@H](CCCN)C(=O)NC(CC(=O)O)C(=O)N[C@H](C)C(=O)N[C@@H](CC(=O)O)C(=O)NCC(=O)N[C@H](CO)C(=O)N[C@@H]([C@@H](C)CC(=O)O)C(=O)N[C@@H](CC(=O)c2ccccc2N)C(=O)O[C@@H]1C` (single isomer, unassigned), for which the MIC in experiment [2] was 4 µg/mL (≈ 2.41 µM); in experiment [3] it was 1 µg/mL (≈ 0.601 µM); in experiment [4], 0.25 µg/mL (≈ 0.15 µM); in experiment [5], more than 32 µg/mL.
For the molecule `CCCCCCCCc1ccc(C(=O)N[C@@H](Cc2c[nH]c3ccccc23)C(=O)N[C@@H](CC(N)=O)C(=O)N[C@@H](CC(=O)O)C(=O)N[C@@H]2C(=O)NCC(=O)N[C@@H](CCCN)C(=O)N[C@H](CC(=O)O)C(=O)N[C@H](C)C(=O)N[C@@H](CC(=O)O)C(=O)NCC(=O)N[C@H](CO)C(=O)N[C@@H]([C@@H](C)CC(=O)O)C(=O)N[C@@H](CC(=O)c3ccccc3N)C(=O)O[C@@H]2C)cc1`, the survival at 0.5 mg/kg in experiment [1] came out at 20%. In addition, the MIC is 4 µg/mL (≈ 2.38 µM) in experiment [2], 1 µg/mL (≈ 0.594 µM) in experiment [3], 0.5 µg/mL (≈ 0.297 µM) in experiment [4] and 8 µg/mL (≈ 4.75 µM) in experiment [5].
Take `C[C@H]1NC(=O)C(CC(=O)O)NC(=O)[C@H](CCCN)NC(=O)CNC(=O)[C@@H](NC(=O)[C@H](CC(=O)O)NC(=O)[C@H](CC(N)=O)NC(=O)[C@H](Cc2c[nH]c3ccccc23)NC(=O)CCCCCC2CCCCC2)[C@@H](C)OC(=O)[C@H](CC(=O)c2ccccc2N)NC(=O)[C@H]([C@@H](C)CC(=O)O)NC(=O)[C@@H](CO)NC(=O)CNC(=O)[C@H](CC(=O)O)NC1=O` (single isomer, unassigned): the minimum inhibitory concentration (MIC) was 16 µg/mL (≈ 9.72 µM) in experiment [2], 2 µg/mL (≈ 1.21 µM) in experiment [3], 1 µg/mL (≈ 0.607 µM) in experiment [4] and more than 32 µg/mL in experiment [5].
With `CCCCCCCCCCC(=O)N[C@@H](Cc1c[nH]c2ccccc12)C(=O)N[C@@H](CC(N)=O)C(=O)N[C@@H](CC(=O)O)C(=O)N[C@@H]1C(=O)NCC(=O)N[C@@H](CCCN)C(=O)NC(CC(=O)O)C(=O)N[C@H](C)C(=O)N[C@@H](CC(=O)O)C(=O)NCC(=O)N[C@H](CO)C(=O)N[C@@H]([C@@H](C)CC(=O)O)C(=O)N[C@@H](CC(=O)c2ccccc2N)C(=O)O[C@@H]1C` (single isomer, unassigned), the MIC in experiment [2] was more than 32 µg/mL; in experiment [3], 4 µg/mL (≈ 2.45 µM); in experiment [4] it was 2 µg/mL (≈ 1.22 µM); in experiment [5], 32 µg/mL (≈ 19.6 µM).
For the molecule `CCCCCCCCCCCCCC(=O)N[C@@H](Cc1c[nH]c2ccccc12)C(=O)N[C@@H](CC(N)=O)C(=O)N[C@@H](CC(=O)O)C(=O)N[C@@H]1C(=O)NCC(=O)N[C@@H](CCCN)C(=O)NC(CC(=O)O)C(=O)N[C@H](C)C(=O)N[C@@H](CC(=O)O)C(=O)NCC(=O)N[C@H](CO)C(=O)N[C@@H]([C@@H](C)CC(=O)O)C(=O)N[C@@H](CC(=O)c2ccccc2N)C(=O)O[C@@H]1C` (single isomer, unassigned), the MIC in experiment [2] came out at 4 µg/mL (≈ 2.39 µM); in experiment [3], 16 µg/mL (≈ 9.54 µM); in experiment [4], 1 µg/mL (≈ 0.596 µM); in experiment [5] it was 4 µg/mL (≈ 2.39 µM).
Regarding `CCCCCOc1ccc(-c2ccc(C(=O)N[C@@H](Cc3c[nH]c4ccccc34)C(=O)N[C@@H](CC(N)=O)C(=O)N[C@@H](CC(=O)O)C(=O)N[C@@H]3C(=O)NCC(=O)N[C@@H](CCCN)C(=O)N[C@H](CC(=O)O)C(=O)N[C@H](C)C(=O)N[C@@H](CC(=O)O)C(=O)NCC(=O)N[C@H](CO)C(=O)N[C@@H]([C@@H](C)CC(=O)O)C(=O)N[C@@H](CC(=O)c4ccccc4N)C(=O)O[C@@H]3C)cc2)cc1`, the MIC in experiment [2] was 2 µg/mL (≈ 1.15 µM); in experiment [3] it was 2 µg/mL (≈ 1.15 µM); in experiment [4], 0.25 µg/mL (≈ 0.144 µM); in experiment [5], 4 µg/mL (≈ 2.31 µM).
Take `C[C@H]1NC(=O)C(CC(=O)O)NC(=O)[C@H](CCCN)NC(=O)CNC(=O)[C@@H](NC(=O)[C@H](CC(=O)O)NC(=O)[C@H](CC(N)=O)NC(=O)[C@H](Cc2c[nH]c3ccccc23)NC(=O)CCCCC2CCCCC2)[C@@H](C)OC(=O)[C@H](CC(=O)c2ccccc2N)NC(=O)[C@H]([C@@H](C)CC(=O)O)NC(=O)[C@@H](CO)NC(=O)CNC(=O)[C@H](CC(=O)O)NC1=O` (single isomer, unassigned): the MIC in experiment [2] was 32 µg/mL (≈ 19.6 µM); in experiment [3], 4 µg/mL (≈ 2.45 µM); in experiment [4] it was 1 µg/mL (≈ 0.612 µM); in experiment [5], more than 32 µg/mL.
